Experimental data published in patent US20210260091A1, “USE OF SALIDROSIDE AND DERIVATIVE THEREOF IN PREPARATION OF INHIBITOR MEDICAMENT FOR DISEASES OF OPHTHALMIC FIBROSIS CAUSED BY ABNORMALITIES OF EXTRACELLULAR MATRIX PROTEINS” (priority 2018, published 2021).

What was measured:
[1] = tested on: laminin (LN), collagen IV (Col-IV) and fibronectin (FN) mRNA in trabecular meshwork cells; assay: qRT-PCR of extracellular matrix expression in dexamethasone-induced normal human trabecular meshwork cells; assay type: cell-based
Description: Normal Trabecular Meshwork cells (NTM) were cultured with F12 containing 10% fetal bovine serum (FBS). When the normal human trabecular meshwork cells were 75%-80% confluent, cells were digested with pancreatic enzymes and planted into a 6-well plate with 2 mL culture media per well.
Normal human normal trabecular meshwork cells were used as a untreated control group. Normal human trabecular meshwork cells with dexamethasone added were used as the experimental control group. Normal human trabecular meshwork cells with dexamethasone and different concentrations of salidroside added were used as the experimental groups (The concentration of dexamethasone used in the experimental control group and the experimental groups was 10^−7 mol/L. The concentrations of salidroside were 1, 3, 10, 30, 100 μmol/L, respectively). The trabecular meshwork cells were cultured for 0, 3, 6, 12, 24, 48 h.
Primer sequences for laminin (LN), collagen IV (Col-IV) and fibronectin (FN) mRNA were designed. Messenger RNA levels of LN, Col-IV, and FN were detected with qRT-PCR. Anti-LN, anti-Col-IV, and anti-FN antibodies were used to detect protein expression of the trabecular meshwork extracellular matrix protein in immunocytochemistry.
FIGS. 1-3 show the effect of salidroside detected by the qRT-PCR on the extracellular matrix proteins of human trabecular meshwork induced by the dexamethasone. […]

[2] = Mouse glaucoma model (intravitreal TGF-β2 overexpression adenovirus vector), intraocular pressure; assay type: in vivo, Balb/cJ mice; conditions: 40 mg/kg intraperitoneal once daily
Description: 1. Salidroside powder was dissolved in normal saline to make 40 mg/kg salidroside solution. 2. Male Balb/cJ mice 8 to 12 weeks old and weighted about […] were used. The selected mice met the requirement of the first-level animal standards. Mice and feed were provided by the Experimental Animal Center of the Ninth People's Hospital, affiliated with Shanghai Jiaotong University School of Medicine. Vivarium temperature was controlled between 15 to 20° C., and relative humidity was 55 to 75%, with 12h light. Food and drinking water were on an ad libitum basis. Mice that met the inclusion criteria were selected: (1) no eye disease; (2) pupillary light reflexes in both eyes in response to direct and indirect light were normal. 4. Intraocular pressure in both the left and the right eye of each conscious mouse was measured and recorded. 5. Weight measurements of each mouse were taken. 4% chloral hydrate was injected to anaesthetize mice at a dose of 10 μL/g body weight; 6. Mouse glaucoma model: 3 μL TGF-β2 overexpression adenovirus vector (3×10^7 pfu/μL) was injected into the vitreous chamber to induce ocular hypertension. […] On the day of adenovirus vector intravitreal injection, mouse intraocular pressure was measured once. Intraocular pressure was measured again on the next day and subsequent selected days to avoid damage to the cornea caused by frequent measurement. […]

[3] = Rabbit glaucoma model (1% dexamethasone eye drops), intraocular pressure; assay type: in vivo, New Zealand white rabbit; conditions: one week; for Average intraocular pressure, Left eye: 3 times a day, two drops, 4 h after treatment; for IOP reduction rate: left eye vs right eye; for Average intraocular pressure, Right eye: right eye as control
Description: 1. Salidroside powder was dissolved in normal saline to prepare salidroside eye drops at the concentrations of 20 μM, 25 μM, 30 μM.
2. Fitly healthy, adult New Zealand white rabbit with body weight between 2.0 to 3.0 kg, consisting of equal numbers of male and female, were chosen for study. Rabbit glaucoma model was established by dosing the animals with 1% dexamethasone eye drops on both eyes 5 times a day for a total induction time of 3 weeks. Intraocular pressure was monitored starting from week 2. Glaucoma model was considered successfully established when intraocular pressure, measured at the same time of the day, was above 22 mmHg for a week. Glaucoma model was successful established on all 50 rabbits with the average intraocular pressure of 26.07±2.03 mmHg (n=100 eyes). Rabbits were randomly divided into 5 groups of 10: the normal control group, positive drug group (Travatan®, 0.004% travoprost eye drops), and three salidroside groups (20 μM, 25 μM, 30 μM salidroside).
Positive drug group was treated with Travatan® in the left eye, three times a day, two drops each time. Intraocular pressure was measured 4 hours after treatment. Treatment lasted for two weeks. The three salidroside groups were treated with salidroside eye drops three times a day, two drops each time. Intraocular pressure was measured 4 hours after treatment. Treatment lasted for two weeks. The normal control group received eye drops in both eyes three times a day, two drops each time. Intraocular pressure was measured 4 hours after receiving eye drops. Eye drops were administered for 2 weeks.
One week after the start of experiment, the average pressure for each eye after each measurement in each group is shown in Table 1.

OC[C@H]1O[C@@H](OCCc2ccc(O)cc2)[C@H](O)[C@@H](O)[C@@H]1O [Salidroside, 2-(4-HYDROXYPHENYL) ETHYL-BETA-D-GLUCOPYRANOSIDE]
expression level of TGF beta, FN, COL-IV and LN ([1]; applicant's previous studies, dexamethasone-induced cells, after intervention of salidroside): decreases
extracellular matrix proteins of the trabecular meshwork (FN, COL-IV, LN; qRT-PCR) ([1]; dexamethasone 10^-7 mol/L plus salidroside 1, 3, 10, 30, 100 μmol/L, normal human trabecular meshwork cells): reduced
intraocular pressure vs glaucoma control group ([2]; salidroside intervention group (treated immediately after vector injection), 11th day after initiation): statistically significantly lowered
intraocular pressure vs glaucoma control group ([2]; salidroside treatment group (treated after IOP increased and stabilized), 18th day after initiation): statistically significantly lowered
Average intraocular pressure, Left eye ([3]; 20 μM eye drops): 15.57 ± 1.52 mmHg
IOP reduction rate ([3]; 20 μM eye drops): 30.98%
Average intraocular pressure, Right eye ([3]; 20 μM group): 22.56 ± 1.72 mmHg
Average intraocular pressure, Left eye ([3]; 25 μM eye drops): 15.07 ± 1.19 mmHg
IOP reduction rate ([3]; 25 μM eye drops): 34.56%
Average intraocular pressure, Right eye ([3]; 25 μM group): 23.03 ± 1.02 mmHg
Average intraocular pressure, Left eye ([3]; 30 μM eye drops): 14.37 ± 1.54 mmHg
IOP reduction rate ([3]; 30 μM eye drops): 37.19%
Average intraocular pressure, Right eye ([3]; 30 μM group): 22.88 ± 1.09 mmHg
average intraocular pressure in the left eye compared with the corresponding right eye as a control ([3]; P<0.01): significant lowered
IOP-lowering effect compared with the Travatan group ([3]; salidroside groups 20, 25, 30 μM eye drops): better than that of the Travatan® group
